Earlier results on one substance are cited in US20090227460A1, “STABILIZED OIL-IN-WATER EMULSIONS INCLUDING MEPTYL DINOCAP” (Dow AgroSciences LLC, priority 2008, published 2009).

Regarding “2,6-dinitro-4-octylphenyl crotonates and 2,4-dinitro-6-octylphenyl crotonates in which ‘octyl’ is a mixture of 1-methylheptyl, 1-ethylhexyl and 1-propylpentyl groups [Meptyl Dinocap]”, the solubility in water is 0.151 µg/mL.
